From PMC6528170 (Nature, 2009)
Where two headings read alike, the source gives them in different places.

Key:
[1] = biological target: Get3 (S. cerevisiae) (Saccharomyces cerevisiae, UniProt Q12154, D57N); experiment: NADH-coupled microplate ATPase assay; assay type: biochemical; conditions: Tris pH 7.5, 5 mM MgCl2, 20 mM NaCl, 30 °C, 2 μM Get3, 0.02% n-dodecyl-β-D-maltopyranoside
[2] = biological target: T1, Get3 (S. cerevisiae) (Saccharomyces cerevisiae, UniProt Q12154); experiment: NADH-coupled microplate ATPase assay; assay type: biochemical; conditions: Tris pH 7.5, 5 mM MgCl2, 20 mM NaCl, 30 °C, 2 μM Get3, 0.02% n-dodecyl-β-D-maltopyranoside
T1 sequence (Q12154 1-354): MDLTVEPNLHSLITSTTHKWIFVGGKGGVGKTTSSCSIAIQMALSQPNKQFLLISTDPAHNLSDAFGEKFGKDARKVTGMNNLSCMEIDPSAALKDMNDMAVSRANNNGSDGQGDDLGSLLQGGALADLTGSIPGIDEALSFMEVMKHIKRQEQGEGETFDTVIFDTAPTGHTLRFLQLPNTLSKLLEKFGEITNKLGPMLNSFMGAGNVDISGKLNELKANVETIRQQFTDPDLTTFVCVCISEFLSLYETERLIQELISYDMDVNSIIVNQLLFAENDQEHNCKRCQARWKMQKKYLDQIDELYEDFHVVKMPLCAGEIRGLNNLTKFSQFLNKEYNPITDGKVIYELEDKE

[3] = biological target: the molecule itself; experiment: crystal structure
[4] = biological target: the molecule itself; experiment: crystal structure; remark: listed apart in the source

Get3 (S. cerevisiae) (Saccharomyces cerevisiae, UniProt Q12154, D57N), sequence (Q12154 whole entry D57N): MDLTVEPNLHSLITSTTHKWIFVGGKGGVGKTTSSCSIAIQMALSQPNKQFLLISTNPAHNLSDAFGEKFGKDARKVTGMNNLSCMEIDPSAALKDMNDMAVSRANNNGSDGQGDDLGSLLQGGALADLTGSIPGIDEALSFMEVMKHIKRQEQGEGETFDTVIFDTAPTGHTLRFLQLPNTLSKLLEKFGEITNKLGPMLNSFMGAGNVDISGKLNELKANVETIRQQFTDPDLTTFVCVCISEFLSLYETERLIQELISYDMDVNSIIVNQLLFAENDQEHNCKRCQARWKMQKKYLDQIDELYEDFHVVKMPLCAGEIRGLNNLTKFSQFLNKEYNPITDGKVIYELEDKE

Nc1ncnc2c1ncn2[C@@H]1O[C@H](COP(=O)(O)OP(=O)(O)OP(=O)(O)O)[C@@H](O)[C@H]1O [ATP]
NADH-coupled microplate ATPase assay [1]: an Asp57Asn mutant is defective for ATP hydrolysis
apparent Km,ATP [2]: used to calculate Vmax and apparent Km,ATP values

B1: Schizosaccharomyces pombe Get3 (natural protein, S. pombe, UniProt Q9P7F8 1-329, looked up)
chain: MSFDPLPGTLENLLEQTSLKWIFVGGKGGVGKTTTSCSLAIQMSKVRSSVLLISTDPAHNLSDAFGTKFGKDARKVPGFDNLSAMEIDPNLSIQEMTEQADQQNPNNPLSGMMQDLAFTIPGIDEALAFAEILKQIKSMEFDCVIFDTAPTGHTLRFLNFPTVLEKALGKLGGLSSRFGPMINQMGSIMGVNANEQDLFGKMESMRANISEVNKQFKNPDLTTFVCVCISEFLSLYETERMIQELTSYEIDTHNIVVNQLLLDPNTTCPQCMARRKMQQKYLAQIEELYEDFHVVKVPQVPAEVRGTEALKSFSEMLVKPYVYPTSGKE
stoichiometry N [3]: 2

B2: Saccharomyces cerevisiae Get3 (wild type) (natural protein, S. cerevisiae, UniProt Q12154 1-354, looked up)
chain: MDLTVEPNLHSLITSTTHKWIFVGGKGGVGKTTSSCSIAIQMALSQPNKQFLLISTDPAHNLSDAFGEKFGKDARKVTGMNNLSCMEIDPSAALKDMNDMAVSRANNNGSDGQGDDLGSLLQGGALADLTGSIPGIDEALSFMEVMKHIKRQEQGEGETFDTVIFDTAPTGHTLRFLQLPNTLSKLLEKFGEITNKLGPMLNSFMGAGNVDISGKLNELKANVETIRQQFTDPDLTTFVCVCISEFLSLYETERLIQELISYDMDVNSIIVNQLLFAENDQEHNCKRCQARWKMQKKYLDQIDELYEDFHVVKMPLCAGEIRGLNNLTKFSQFLNKEYNPITDGKVIYELEDKE
stoichiometry N [4]: 2
